Measured values taken from ChEMBL document CHEMBL1125055, “Tricyclic heteroaromatic systems. [1]benzopyranopyrrol-4-ones and [1]benzopyrano-1,2,3-triazol-4-ones as benzodiazepine receptor ligands. Synthesis and structure-activity relationships” (J Med Chem, 1990).

Key:
[1] = target: GABA-A receptor; anion channel; experiment: Affinity to displace [3H]flunitrazepam from Benzodiazepine receptor in bovine brain membrane; type: cell membranes
[2] = target: GABA-A receptor; anion channel (Bos taurus) (UniProt P10063+P08220+P20237+P08219+P10064+P22300); experiment: Percent inhibition of [3H]flunitrazepam binding to GABA-A Benzodiazepine receptor of bovine brain membranes at 34 uM; type: cell membranes

Structure (SMILES): COc1ccc(-n2cc(-c3ccccc3)c3c(=O)oc4ccccc4c32)cc1
- IC50 [1]: 62 nM

Structure (SMILES): O=c1oc2ccccc2c2c1nnn2-c1ccccc1
- inhibition [2]: 0%

Structure (SMILES): O=c1oc2ccccc2c2c1c(-c1ccccc1)cn2-c1cccc(Cl)c1
- IC50 [1]: 10 nM

Structure (SMILES): Cc1cccc(-n2nnc3c(=O)oc4ccccc4c32)c1
- inhibition [2]: 18%

Structure (SMILES): O=c1oc2ccccc2c2c1c(-c1ccccc1)cn2-c1ccccc1
- IC50 [1]: 65 nM

Structure (SMILES): Cc1cc(C)cc(-n2cc(-c3ccccc3)c3c(=O)oc4ccccc4c32)c1
- IC50 [1]: 8.6 nM

Structure (SMILES): Cc1ccc(-n2cc(-c3ccccc3)c3c(=O)oc4ccccc4c32)cc1
- IC50 [1]: 172 nM

Structure (SMILES): O=c1oc2ccccc2c2c1cc(-c1ccccc1)n2-c1ccccc1
- inhibition [2]: 30%

Structure (SMILES): COc1cccc(-n2cc(-c3ccccc3)c3c(=O)oc4ccccc4c32)c1
- IC50 [1]: 48 nM

Structure (SMILES): COC(=O)c1cc2c(cn1)[nH]c1ccccc12 [BETA-CCM]
- IC50 [1]: 16 nM

Structure (SMILES): O=c1oc2ccccc2c2c1c(-c1ccccc1)cn2-c1ccc(Cl)cc1
- IC50 [1]: 40 nM

Structure (SMILES): Cc1nn(-c2cccc(Br)c2)c2c1c(O)nc1ccccc12
- IC50 [1]: 2500 nM

Structure (SMILES): Cn1c(=O)c2c(-c3ccccc3)nn(-c3cccc(Cl)c3)c2c2ccccc21
- IC50 [1]: 70 nM

Structure (SMILES): COc1cccc(-n2nc(C)c3c(O)nc4ccccc4c32)c1
- IC50 [1]: 7500 nM

Structure (SMILES): Cc1cccc(-n2cc(-c3ccccc3)c3c(=O)oc4ccccc4c32)c1
- IC50 [1]: 25 nM

Structure (SMILES): CN1C(=O)CN=C(c2ccccc2)c2cc(Cl)ccc21 [DIAZEPAM]
- IC50 [1]: 13 nM

Structure (SMILES): Cc1cccc(-n2nc(-c3ccccc3)c3c(=O)n(C)c4ccccc4c32)c1
- IC50 [1]: 90 nM
